The numbers were not newly measured in patent US20180128811A1 (JNC Corporation, priority 2012, published 2018), which cites them from elsewhere.

The conditions of the data set: small doses (about less than 250 mg), first-order kinetics; cited from earlier work.

Take `CC(=O)Oc1ccccc1C(=O)O` [aspirin, acetylsalicylic acid]: the Elimination half-life result was “about 4 hours”.
